The target in this assay is T1, SIRT5 (Homo sapiens, UniProt Q9NXA8).
T1 sequence (Q9NXA8 37-310): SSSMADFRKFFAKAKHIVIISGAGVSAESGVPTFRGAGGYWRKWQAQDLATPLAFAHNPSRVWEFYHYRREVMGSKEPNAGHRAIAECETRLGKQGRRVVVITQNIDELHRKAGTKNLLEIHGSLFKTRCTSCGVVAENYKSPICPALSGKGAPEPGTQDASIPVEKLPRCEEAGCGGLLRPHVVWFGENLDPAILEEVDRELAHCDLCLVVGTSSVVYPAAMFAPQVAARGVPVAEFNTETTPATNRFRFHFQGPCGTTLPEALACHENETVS
The assay is described as follows: SIRT5 desuccinylation/deacetylation of fluorogenic lysyl substrates, trypsin developer. It is filed as biochemical. Details: purchased Enzo Life Sciences BML-SE555. The settings on record: for Dependence of SIRT5 initial rate on substrate concentration: 20 min. at 37° C. The protocol:
FIG. 3 is graphs showing that SIRT5 catalyzes NAD^+-dependent desuccinylation of Ac-Lys(ε-succinyl)-AMC far more efficiently than NAD^+-dependent deacetylation of Ac-Arg-His-Lys-Lys(ε-acetyl)-AMC. Fifty μl reactions in Assay Buffer (50 mM Tris/HCl, pH 8.0, 137 mM NaCl, 2.7 mM KCl, 1 mM MgCl2, 1 mg/ml BSA) included 50 μM of either Ac-Lys(ε-succinyl)-AMC or Ac-Arg-His-Lys-Lys(ε-acetyl)-AMC, and, where indicated, 500 μM NAD^+ and 5 μg recombinant human SIRT5 (Enzo Life Sciences Cat. # BML-SE555). […] AMC fluorescence was read in a Cytofluor II plate-reading fluorimeter (Perseptive Biosystems) at wavelengths 360 nm (excitation)/460 nm (emission), Gain 54. Data represent the mean of two (No Enzyme) or three (+SIRT5) determinations and error bars the standard deviations. Panels A and B present the same data, but with the +SIRT5/+NAD^+/Ac-Lys(ε-succinyl)-AMC bar omitted from B to show the detail on the remaining bars. Statistically significant differences (Student's t-test) are indicated by asterisks as follows: *: p<0.02 vs. corresponding No Enzyme control; **: p<0.001 vs. corresponding −NAD^+ control; ***: p<3×10^−6 vs. both No Enzyme and −NAD^+ controls.
FIG. 4 is a graph showing that Ac-Lys(Succ.)-AMC enables SIRT5 assay at low enzyme concentrations. Fifty μl reactions in Assay Buffer (50 mM Tris/HCl, pH 8.0, 137 mM NaCl, 2.7 mM KCl, 1 mM MgCl2, 1 mg/ml BSA) included 2 or 10 μM Ac-Lys(ε-succinyl)-AMC, 500 μM NAD^+ and, where indicated, 5 ng recombinant human SIRT5 (Enzo Life Sciences Cat. # BML-SE555). […] AMC fluorescence was read in a Synergy 2 plate-reading fluorimeter (BioTek) at wavelengths 360 nm (excitation)/460 nm (emission), Gain 40. Data represent the mean of two (No Enzyme) or three (5 ng SIRT5) determinations and error bars the standard deviations. Statistically significant differences (Student's t-test) are indicated by asterisks as follows: *: p=0.002; **: p=0.009, each with respect to the corresponding “No SIRT5” samples.
FIG. 5 is graphs showing dependence of SIRT5 initial rate kinetics on the concentrations of Ac-Lys(Succ.)-AMC and Ac-Lys(Ac.)-AMC. Fifty μl desuccinylation or deacetylation reactions were performed as described earlier (FIG. 4), with the indicated concentrations of Ac-Lys(Succ.)-AMC or Ac-Lys(Ac.)-AMC and 1 mM NAD^+, for 20 min. at 37° C. Reactions with Ac-Lys(Succ.)-AMC contained 10 ng SIRT5 and those with Ac-Lys(Ac.)-AMC contained 5 SIRT5. Reactions were stopped and AMC cleaved from deacetylated or desuccinylated substrate by trypsin treatment as described earlier (FIG. 4). AMC fluorescence was read in a Synergy 2 plate-reading fluorimeter (BioTek) at wavelengths 360 nm (excitation)/460 nm (emission), Gain 40. Data represent the mean of the differences of three determinations with enzyme (10 ng or 5 SIRT5) from the mean of two no enzyme samples for each substrate concentration. Error bars are the standard deviations from those means. Fluorescence differences were converted to specific activities (pmol/min/μg) by measuring the fluorescence increase due to the addition a standard solution of AMC (5 μl of a […]).
FIG. 6 is a graph showing the dependence of SIRT5 initial rate kinetics of Ac-Lys(Succ.)-AMC desuccinylation on the concentration of NAD^+. Reaction conditions were as described for FIG. 5 but with a constant Ac-Lys(Succ.)-AMC concentration of 0.5 mM and the indicated concentrations of NAD^+. Data analysis and determination of kinetic parameters were as described (FIG. 5).
FIG. 12 is graphs showing that SIRT5 catalyzes NAD^+-dependent desuccinylation of (Ac-Lys(Succ.))2-R110 far more efficiently than NAD^+-dependent deacetylation of (Ac-Lys(Ac.))2-R110. Fifty μl reactions in Assay Buffer (50 mM Tris/HCl, pH 8.0, 137 mM NaCl, 2.7 mM KCl, 1 mM MgCl2, 1 mg/ml BSA) included 50 μM of either (Ac-Lys(Succ.))2-R110 or (Ac-Lys(Ac.))2-R110, and, where indicated, 500 μM NAD^+ and 5 μg recombinant human SIRT5 (Enzo Life Sciences Cat. # BML-SE555). […]

The mark [1] stands for this setting: SIRT5, 50 μM substrate, 500 μM NAD^+.

*: point of attachment. AMC = Cc1cc(=O)oc2cc(N*)ccc12

As for `CC(=O)NCCCCC(NC(C)=O)C(=O)Nc1ccc2c(C)cc(=O)oc2c1` (stereo not shown) [Ac-Lys(Ac.)-AMC, Ac-Lys(ε-acetyl)-AMC, reference compound], under “1 mM NAD^+”, the “Dependence of SIRT5 initial rate on substrate concentration” value is “remains linear over the concentration range of the assay”. Moreover, under setting [1], the “Activity” value was found to be 0.0174 pmol/min/µg.

With `CC(=O)N[C@@H](CCCCNC(=O)CCC(=O)O)C(=O)Nc1ccc2c(C)cc(=O)oc2c1` [Compound 1, N—(N^α-acetyl-L-Lysine(N^ε-succinyl))-AMC], for the setting “5 μg SIRT5 (3 μM in 50 μl), 50 μM substrate, 60 min.”, the “Fraction of substrate desuccinylated” value is approximately 50%. For the setting “5 μg SIRT5, 50 μM substrate, 500 μM NAD^+, 60 min.”, the “SIRT5/NAD^+ dependence of desuccinylation” value was “entirely dependent on the presence of SIRT5 and NAD^+”. The “Desuccinylation relative to deacetylation of Ac-Arg-His-Lys-Lys(ε-acetyl)-AMC” value (5 μg SIRT5 per 50 μl, 50 μM substrate, 500 μM NAD^+, 60 min.) is given as “at least 250 fold”. Besides, where the note is “1 mM NAD^+”, the “Dependence of SIRT5 initial rate on substrate concentration” value is given as “displays saturation kinetics”. Further, the “Activity” value under setting [1] turned out to be 115 pmol/min/µg. Further, the kcat (varied substrate: Lysyl, 1 mM NAD^+) was found to be 0.26 s⁻¹ and the kcat (varied substrate: NAD^+, constant 0.5 mM Ac-Lys(Succ.)-AMC) worked out at 0.29 s⁻¹.

For “Ac-Arg-His-Lys-Lys(ε-acetyl)-AMC (Ac-RHKK(Ac)-{AMC}; SMILES CC(=O)NCCCC[C@H](NC(=O)[C@H](CCCCN)NC(=O)[C@H](Cc1c[nH]cn1)NC(=O)[C@H](CCCNC(=N)N)NC(C)=O)C(=O)Nc1ccc2c(C)cc(=O)oc2c1) [Ac-RHKK(Ac)-AMC, p53 peptide fluorogenic deacetylase substrate, Cat. # BML-KI177, reference compound]”, the “Activity (pmol/min/μg)” value under setting [1] was “Ac-RHKK(Ac)-AMC/0.364 pmol/min/μg”.

Broadly, the kcat is the maximal rate divided by the concentration of active sites.

The record behind these values is patent US10920265B2, “Compounds and methods for detection of enzymes that remove methyl succinyl groups from epsilon-amino lysine moieties” (Enzo Life Sciences, Inc., priority 2011, dated 2021).
